For one assay, the system named is ribosome. The assay is described as follows: Determination of molecular target (ribosome by default). Format: biochemical, Pseudomonas aeruginosa. The conditions noted are these: no accessory protein inhibited. The method, then: Nitrocellulose binding assays were used to determine inhibition of GDP exchange by EF-Tu as previously described in Bullard et al. “Effects of domain exchanges between Escherichia coli and mammalian mitochondrial EF-Tu on interactions with guanine nucleotides, aminoacyl-tRNA and ribosomes” 1999, Biochim. Biophys. Acta 1446:102-114, which is incorporated herein by reference, with the exception that the enzyme (1 μM) was pre-incubated with 132 μM compound for 15 min prior to the addition of [^3H]GDP. EF-Ts stimulates the exchange of GDP bound by EF-Tu. The ability of compounds to inhibit EF-Ts stimulation of GDP exchange by EF-Tu was measured in assays as described for EF-Tu/GDP exchange with the exceptions that EF-Ts was present at 0.05 μM and the time for the reaction was decreased from 30 min to 30 sec.
Assays for ribosome-dependent GTP hydrolysis by EF-G were carried out in 50 μl reactions containing: 50 mM Tris-HCl (pH 7.5), 10 mM MgCl2, 70 mM NH4Cl, 1 mM dithiothreitol (DTT), 1.8 mM GTP, 0.4 μM P. aeruginosa ribosomes and 0.2 μM EF-G. Final concentrations of compounds in the assays were 132 μM. The amount of GTPase activity was determined by measurement of the amount of Pi liberated using a colorimetric GTPase assay kit (Novus Biologicals) per manufacturer's directions.

In assay [1] the test system is Moraxella catarrhalis (ATCC 25238). Nature of the assay: Broth microdilution MIC. It is filed as cell-based. The conditions noted are these: ATCC25238. (Dilution methods test growth across graded concentrations, often in twofold steps.)
A further assay has as its target P. aeruginosa PheRS (Pseudomonas aeruginosa, UniProt Q9I0A3+Q9I0A4). Nature of the assay: PheRS tRNA aminoacylation SPA assay. It is filed as biochemical. The conditions noted are these: for Inhibition of Phenylalanyl-tRNA synthetase (PheRS), target found: 132 μM compound. The method, then: SPA assays to determine inhibition of PheRS by chemical compounds were as described in Bullard et al. “Expression and characterization of a human mitochondrial phenylalanyl-tRNA synthetase” 1999, J. Mol. Biol. 288:567-577, which his incorporated herein by reference and in Ribble et al. Exceptions were that the enzyme mix was pre-incubated with 132 μM compound for 15 min prior to addition of tRNA. The reactions were stopped by the addition of 5 μl of 0.5 M EDTA. 400 μg of SPA beads (Ysi poly-L-lysine coated beads, Perkin Elmer) in 150 μl of 300 mM citrate buffer (pH 2.0) were added and the plates were analyzed as above.

Assay [2] concerns Gram (+) bacteria (E. faecalis or S. aureus). The assay is described as follows: Time-kill experiments, Gram (+). The conditions noted are these: four-times the MIC, 0 to 24 hours.
Protocol: (§1) Time-kill experiments were performed according to the CLSI guidelines M26-A. H. influenzae (ATCC 49766), E. faecalis ATCC 29212, and Staphylococcus aureus (ATCC 29213) were from the American Type Culture Collection (Manassas, Va.). Growth media were Brain Heart Infusion and Trypticase Soy Broth from Remel (Lenexa, Kans.). For the experiments, 10 mL of broth medium was inoculated with 0.1 mL of a fresh overnight culture and grown at 35° C. with shaking (200 rpm) for 2-3 hours. Pre-warmed flasks containing 10 mL of medium alone or 10 mL of medium containing a test compound at 4×MIC were then inoculated with 0.1 mL of the exponentially growing cultures. Samples were removed at 0, 2, 4, 6, and 24 h, and serial dilutions were plated on blood agar to allow for colony enumeration and calculation of the live cell density.
(§2) Time-kill experiments were performed according to the CLSI guideline M26-A to determine the efficacy against both Gram (+) and a Gram (−) organisms. […] The Gram (+) bacteria used was either E. faecalis or S. aureus, while the Gram (−) bacteria was H. influenzae. […] The compounds were tested in these assays at four-times the MIC and between 0 and 24 hours.
The subject of a further assay is E. coli tolC mutant. Nature of the assay: Broth microdilution MIC. It is filed as cell-based. The conditions noted are these: Escherichia coli, read-out: MIC E. coli tolC (efflux).
For assay [3], the system named is Pseudomonas aeruginosa hypersensitive strain (ATCC 35151). The assay is described as follows: Broth microdilution MIC. The conditions noted are these: ATCC35151, read-out: MIC P. aeruginosa (hypersensitive). Format: cell-based.
The subject of assay [4] is Enterococcus faecalis (ATCC 29212). Nature of the assay: Broth microdilution MIC. Format: cell-based.
In assay [5] the test system is Streptococcus pneumonia (ATCC 49619). Nature of the assay: Broth microdilution MIC. Format: cell-based. The conditions noted are these: Streptococcus pneumoniae.
Another assay has as its system H. influenzae. Nature of the assay: Time-kill experiments, Gram (−). The conditions noted are these: four-times the MIC, 0 to 24 hours.
For assay [6], the system named is Pseudomonas aeruginosa (ATCC 47085). The assay is described as follows: Broth microdilution MIC. Format: cell-based.
Assay [7] deals with P. aeruginosa aminoacylation/translation (A/T) protein synthesis system (ribosomes, PheRS, EF-Tu, EF-Ts, EF-G). The assay is described as follows: aminoacylation/translation (A/T) scintillation proximity assay. It is filed as biochemical, Pseudomonas aeruginosa. The conditions noted are these: all P. aeruginosa components. The method, then:
A scintillation proximity assay (SPA) was developed using P. aeruginosa components for the aminoacylation/translation (A/T) assay as described in Ribble et al. The complete assay (50 μl) contained 50 mM Tris-HCl (pH 7.5), 25 mM KCl, 10 mM MgCl2, 0.03 mM spermine, 1.5 mM ATP, 0.5 mM GTP, 40 μM [^3H]Phenylalanine (Phe) (75 cpm/pmol) and 0.3 mg/ml polyU mRNA. To maintain constant levels of ATP and GTP the assay contained a nucleotide regeneration system composed of 4 mM phosphoenolpyruvate (PEP) and 0.025 Units/μl pyruvate kinase (PK). The concentration of ribosomes and proteins in the assay were as follows: ribosome (0.2 μM), PheRS (0.1 μM), EF-Tu (1 μM), EF-Ts (0.05 μM) and EF-G (0.2 μM). These concentrations were arrived at through sequential rounds of optimization: each concentration represents the concentration just below the saturation point for each component of the reaction in the titration.
The screening reactions were carried out in 96 well microtiter plates (Costar). Test compounds were equilibrated by addition of 33 μl of the protein/substrate mix (without tRNA) to 2 μl of chemical compound (3.2 mM) dissolved in 100% DMSO. […] Reactions were stopped by the addition of 5 μl of 0.5 M EDTA. 200 μg of SPA beads (RNA Binding Beads (YSI), Perkin Elmer) in 150 μl of 300 mM citrate buffer (pH 6.2) were added. The plates were analyzed using a 1450 Microbeta (Jet) liquid scintillation and luminescence counter (Wallac). Assays to determine IC50 values were as described above with the test compounds serially diluted from 200 μM to 0.4 μM. The concentration ranges of antibiotics as controls were as follows: spiramycin (0.02 μM to 20.0 μM), tylosin (0.02 μM to 20.0 μM), and fusidic acid (4 μM to 512 μM).
(In general: SPA uses beads or plates that emit light when radiolabelled molecules are held near them.)

Assay [8] has as its system Staphylococcus aureus (ATCC 29213). Nature of the assay: Broth microdilution MIC. It is filed as cell-based. The conditions noted are these: ATCC29213, read-out: MIC S. aureus.
For another assay, the system named is E. coli (ATCC 25922). Nature of the assay: Broth microdilution MIC. It is filed as cell-based. The conditions noted are these: Escherichia coli.
In assay [9] the test system is Haemophilus influenzae (ATCC 49766). Nature of the assay: Broth microdilution MIC. Format: cell-based. Conditions: ATCC49766.
[10] abbreviates: ATCC29212, ATCC 29212, read-out: MIC E. faecalis.
Where [11] appears, read: ATCC49619, ATCC 49619, read-out: MIC S. pneumo.
Where [12] appears, read: ATCC47085, ATCC 47085, read-out: MIC P. aeruginosa.
[13] abbreviates: ATCC25922, ATCC 25922, read-out: MIC E. coli.

Each structure is given as a SMILES string. Converted amounts (≈) assume the structure as drawn. Counter-ions that a name gives are not always drawn. Like-named read-outs stand apart in the source and are kept apart here.

Chain of P. aeruginosa PheRS (Q9I0A3 whole entry): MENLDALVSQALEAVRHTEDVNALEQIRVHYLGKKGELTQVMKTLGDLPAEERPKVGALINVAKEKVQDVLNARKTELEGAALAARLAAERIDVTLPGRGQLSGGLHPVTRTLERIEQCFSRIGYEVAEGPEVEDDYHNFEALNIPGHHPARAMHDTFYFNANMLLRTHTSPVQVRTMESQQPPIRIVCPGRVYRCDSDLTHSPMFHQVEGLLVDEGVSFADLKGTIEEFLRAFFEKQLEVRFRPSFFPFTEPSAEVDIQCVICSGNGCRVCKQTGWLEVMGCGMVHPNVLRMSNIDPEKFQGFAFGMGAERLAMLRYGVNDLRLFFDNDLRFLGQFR
Chain of P. aeruginosa PheRS (Q9I0A4 whole entry): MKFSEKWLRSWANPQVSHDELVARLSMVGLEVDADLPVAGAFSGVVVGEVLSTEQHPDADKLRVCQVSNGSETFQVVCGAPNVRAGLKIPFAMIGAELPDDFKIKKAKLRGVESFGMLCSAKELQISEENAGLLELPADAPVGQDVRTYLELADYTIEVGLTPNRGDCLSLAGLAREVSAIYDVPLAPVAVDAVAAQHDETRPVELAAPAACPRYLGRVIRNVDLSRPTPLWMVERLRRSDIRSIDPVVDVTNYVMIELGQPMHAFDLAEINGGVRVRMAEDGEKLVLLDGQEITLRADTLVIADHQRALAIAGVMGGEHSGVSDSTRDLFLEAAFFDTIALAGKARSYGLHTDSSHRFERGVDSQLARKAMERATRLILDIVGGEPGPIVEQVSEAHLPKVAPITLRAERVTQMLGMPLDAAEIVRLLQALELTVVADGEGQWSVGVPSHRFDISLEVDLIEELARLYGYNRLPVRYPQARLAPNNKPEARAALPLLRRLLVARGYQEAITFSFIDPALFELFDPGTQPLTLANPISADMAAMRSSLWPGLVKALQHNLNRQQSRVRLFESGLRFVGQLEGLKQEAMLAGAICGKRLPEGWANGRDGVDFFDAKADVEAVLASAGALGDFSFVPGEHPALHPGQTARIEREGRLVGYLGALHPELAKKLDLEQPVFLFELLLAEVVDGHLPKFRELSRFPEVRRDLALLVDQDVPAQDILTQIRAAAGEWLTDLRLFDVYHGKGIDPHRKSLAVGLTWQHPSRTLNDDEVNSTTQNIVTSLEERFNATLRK
Protocol for H. influenzae: as §1, §2

Take `NC(N)=NN=C(/C=C/c1ccc([N+](=O)[O-])o1)/C=C/c1ccc([N+](=O)[O-])o1` [2-[1,5-bis(5-nitrofuran-2-yl)penta-1,4-dien-3-ylideneamino]guanidine hydrochloride]: the “Target found: ribosomal inhibitor” value with ribosome was “ribosomal inhibitor”.
The term IC50 denotes the concentration that gives 50% inhibition. The low end stands for greater potency in that assay, the high end for weaker potency in that assay. Consider `O=C(/C=C/c1ccccc1)c1ccc(O)cc1O` [Class 1, (2E)-1-(2,4-Dihydroxyphenyl)-3-phenyl-2-propen-1-one], for which the MIC in [1] is 64 µg/mL (≈ 266 µM); with E. coli tolC mutant it was more than 128 µg/mL; in [3], more than 128 µg/mL; in assay [4] (ATCC29212, read-out: MIC E. faecalis), more than 128 µg/mL; in assay [5] (ATCC49619, read-out: MIC S. pneumo), more than 128 µg/mL; in [6] (ATCC47085, read-out: MIC P. aeruginosa), more than 128 µg/mL. For the same compound, the MIC in [8] is 128 µg/mL (≈ 533 µM); with E. coli (ATCC 25922) (ATCC25922, read-out: MIC E. coli) it was more than 128 µg/mL; in [9], 32 µg/mL (≈ 133 µM). Besides, the half-maximal inhibitory concentration (IC50) is 37 µM against P. aeruginosa PheRS and 33 µM in assay [7]. The “Inhibition of Phenylalanyl-tRNA synthetase (PheRS), target found” value (shortened to “Inhibition”) at P. aeruginosa PheRS is listed as “inhibit”. In assay [2], the “Time-kill mode of action against Gram (+) bacteria” value (“Time-kill mode … (+) bacteria” below) was “bactericidal”. The “Time-kill mode of action against Gram (−) bacteria” value (shortened to “Time-kill mode … (−) bacteria”) with H. influenzae is recorded as “bactericidal”.
In the case of `COC(=O)c1c(C)c2c(c(C)c1O)OC(=O)c1c(C)c(Cl)c(O)c(Cl)c1O2` [Class 2, Methyl 2,4-dichloro-3,8-dihydroxy-1,6,9-trimethyl-11-oxo-11H-dibenzo[b,e][1,4]dioxepine-7-carboxylate], the MIC in [1] was found to be 1 µg/mL (≈ 2.42 µM); with E. coli tolC mutant it was 16 µg/mL (≈ 38.7 µM); in assay [3] it was 8 µg/mL (≈ 19.4 µM); in assay [4] (setting [10]), 8 µg/mL (≈ 19.4 µM); in [5] (setting [11]) it was 64 µg/mL (≈ 155 µM); in assay [6] (setting [12]), 128 µg/mL (≈ 310 µM). In addition, the MIC is 128 µg/mL (≈ 310 µM) in assay [8], more than 128 µg/mL with E. coli (ATCC 25922) (setting [13]) and 32 µg/mL (≈ 77.4 µM) in assay [9]. Moreover, the 50% inhibitory concentration (IC50) at P. aeruginosa PheRS stood at 9.8 µM; in assay [7], 59 µM. Besides, at P. aeruginosa PheRS, the “Inhibition” value was “inhibit”. In addition, the “Time-kill mode … (+) bacteria” value in assay [2] is “bacteriostatic”. In addition, the “Time-kill mode … (−) bacteria” value with H. influenzae is reported as “bacteriostatic”.
As to `O=C(N/N=C/c1ccc([N+](=O)[O-])o1)c1cc([N+](=O)[O-])cc([N+](=O)[O-])c1O` [Class 4, N-[(1E)-2-(5-nitro(2-furyl))-1-azavinyl](2-hydroxy-3,5-dinitrophenyl)carboxamide], the MIC is 32 µg/mL (≈ 87.6 µM) in [1]; 2 µg/mL (≈ 5.48 µM) in the assay on E. coli tolC mutant; 32 µg/mL (≈ 87.6 µM) in assay [3]; 128 µg/mL (≈ 350 µM) in assay [4] (setting [10]); 128 µg/mL (≈ 350 µM) in assay [5] (setting [11]); 32 µg/mL (≈ 87.6 µM) in assay [6] (setting [12]). Besides, the results for the MIC (in assay [8]; in the assay on E. coli (ATCC 25922) (setting [13]); in assay [9]) were 32 µg/mL (≈ 87.6 µM), more than 128 µg/mL and 32 µg/mL (≈ 87.6 µM), respectively. Besides, the results for the IC50 (at P. aeruginosa PheRS; in assay [7]) were 40 µM and 50.2 µM, respectively. Besides, the “Time-kill mode … (+) bacteria” value in assay [2] is reported as “bacteriostatic”. Further, the “Time-kill mode … (−) bacteria” value with H. influenzae is reported as “bacteriostatic”.
Consider `NC(N)=NN=C(/C=C/c1ccc([N+](=O)[O-])o1)/C=C/c1ccc([N+](=O)[O-])o1` [Class 5, 2-[1,5-bis(5-nitrofuran-2-yl)penta-1,4-dien-3-ylideneamino]guanidine hydrochloride], for which the MIC in [1] was 64 µg/mL; in the assay on E. coli tolC mutant, 2 µg/mL; in assay [3] it was 4 µg/mL; in assay [4] (setting [10]) it was 128 µg/mL; in assay [5] (setting [11]) it was 32 µg/mL; in [6] (setting [12]), 128 µg/mL. In addition, the MIC in [8] is 16 µg/mL; with E. coli (ATCC 25922) (setting [13]) it was more than 128 µg/mL; in [9], 16 µg/mL. For the same compound, the “Time-kill mode … (+) bacteria” value in assay [2] is given as “bactericidal”. Further, in the assay on H. influenzae, the “Time-kill mode … (−) bacteria” value is recorded as “bactericidal”. The compound further returned an IC50 in assay [7] of 27.5 µM.
For `Cc1cc(C)nc(NC(=N)Nc2ccc(OCc3ccc(Cl)cc3)cc2)n1` [Class 6, (4,6-dimethylpyrimidin-2-yl)[({4-[(4-chlorophenyl)methoxy]phenyl}amino)iminomethyl]amine], the MIC stood at 64 µg/mL (≈ 168 µM) in [1]; 16 µg/mL (≈ 41.9 µM) with E. coli tolC mutant; 16 µg/mL (≈ 41.9 µM) in assay [3]; 16 µg/mL (≈ 41.9 µM) in assay [4] (setting [10]); 32 µg/mL (≈ 83.8 µM) in [5] (setting [11]); 64 µg/mL (≈ 168 µM) in [6] (setting [12]). For the same compound, the MIC in [8] is 32 µg/mL (≈ 83.8 µM); in the assay on E. coli (ATCC 25922) (setting [13]), 64 µg/mL (≈ 168 µM); in assay [9], 32 µg/mL (≈ 83.8 µM). For the same compound, in the assay with ribosome, the “Target found: ribosomal inhibitor” value was “ribosomal inhibitor”. Besides, in [2], the “Time-kill mode … (+) bacteria” value was “bactericidal”. Also, the “Time-kill mode … (−) bacteria” value in the assay with H. influenzae is “bactericidal”. Besides, in [7], the half-inhibitory concentration (IC50) was 25.8 µM.
Turning to `O=C(N/N=C/c1ccc([N+](=O)[O-])o1)c1cc([N+](=O)[O-])cc([N+](=O)[O-])c1O` [N-[(1E)-2-(5-nitro(2-furyl))-1-azavinyl](2-hydroxy-3,5-dinitrophenyl)carboxamide], the “Inhibition” value on P. aeruginosa PheRS is reported as “inhibit”.

Source of the values: patent US20160220510A1, “ANTIBIOTIC COMPOUNDS THAT INHIBIT BACTERIAL PROTEIN SYNTHESIS” (The Board of Regents of the University of Texas System, priority 2015, published 2016).
